These results are taken from ChEMBL document CHEMBL5625211, “Neutral sphingomyelinase 2 inhibitors based on the pyrazolo[1,5-a]pyrimidin-3-amine scaffold” (Eur J Med Chem, 2023).

The nature of data set [1]: Drug concentration in Wistar rat plasma at 10 mg/kg, po measured after 30 mins by LC-MS/MS method. It is filed as ADME, organism-based.
The nature of data set [2]: Drug concentration in Wistar rat brain at 10 mg/kg, po measured after 30 mins by LC-MS/MS method. The conditions noted are these: in vivo, 0.5 h. It is filed as ADME, organism-based.

In the case of `CN(C)c1cnn2ccc(N3CCOCC3)nc12`, in data set [1], the concentration at 0.5 h is above 2000 nM. The Drug uptake result in data set [2] is recorded as “Active”.
